The values below come from US20170157212A1, “CDK MODULATORS AND METHODS FOR THE TREATMENT OF CANCER” (Salk Institute for Biological Studies, priority 2015, published 2017).

Experiment [1] has as its system U2OS cells. The experiment in a line: Immunoblot of CDK12 substrate phosphorylation under oxidative stress. Type of experiment: cell-based, human. Particulars: 100 μM for 4 h. The method, then: (§1) FIGS. 7A-7F. […] (F) Oxidative stress activates the CDK12 pathway.
(§2) CDK12 was also recently shown to be essential for NRF2-dependent transcription (Li et al., Sci Rep 6, 21455, 2016). To examine whether CDK12 activity is regulated globally by oxidative stress in human cells, U2OS cells were treated with tBHQ (tert-butylhydroquinone) to induce mitochondrial oxidative stress. […] In contrast, oxidative stress had no effect on the interaction of CCNK with CDK12.

Experiment [2] concerns CRIF1-CDK12 interaction in U2OS cells. Description: Co-immunoprecipitation of CRIF1 with CDK12:CCNK under oxidative stress. The format is cell-based, human. Particulars: 100 μM for 4 h, reciprocal co-immunoprecipitation. As to the method: as §1, §2
Experiment [3] has as its system CHK1, RPL26, TMA7 gene promoters in U2OS cells. The experiment in a line: Chromatin immunoprecipitation (ChIP) at CDK12 target gene promoters. To be noted: 12 hr treatment. Type of experiment: cell-based, human. The method, then:
Briefly, 5×10^6 cells were twice washed with ice-cold PBS and serially cross-linked with 2 mM DSG (Disuccinimidylglutarate) for 20 min and 1% (v/v) formaldehyde for 10 min at room temperature. The cross-linking reaction was stopped by adding glycine to a final concentration of 0.125 M for 10 min at room temperature. Cells were washed twice with cold PBS. […] ChIP DNA is analyzed by SYBR® Green master mixes (Life Technologies) using described primer sets. qPCR is carried out in the ABI7300 (Applied Biosystems) with a 10 min DNA denaturation step at 95° C., followed by 40 cycles of 15 s at 95° C., 60 s at 60° C. […]
ChIP experiments were carried out as described in the previous report. […] ChIP DNA is analyzed by SYBR® Green master mixes (Life Technologies) using described primer sets. qPCR is carried out in the ABI7300 (Applied Biosystems) with a 10 min DNA denaturation step at 95° C., followed by 40 cycles of 15 s at 95° C., 60 s at 60° C. […]

The test system of experiment [4] is U2OS cells. Particulars: CDK12 siRNA, 1 μM for 12 hr.
Method: Top panel: U2OS cells were treated with tBHQ (tert-Butylhydroquinone) 100 μM for 4 h, and cell extracts were analyzed by co-immunoprecipitation with anti-CDK12 antisera for association of CRIF1 or CCNK.
In a further experiment the target is Cdk12 (Homo sapiens, UniProt Q9NYV4). To be noted: have been shown (prior knowledge); cited from earlier work.
Sequence of Cdk12 (Q9NYV4 whole entry): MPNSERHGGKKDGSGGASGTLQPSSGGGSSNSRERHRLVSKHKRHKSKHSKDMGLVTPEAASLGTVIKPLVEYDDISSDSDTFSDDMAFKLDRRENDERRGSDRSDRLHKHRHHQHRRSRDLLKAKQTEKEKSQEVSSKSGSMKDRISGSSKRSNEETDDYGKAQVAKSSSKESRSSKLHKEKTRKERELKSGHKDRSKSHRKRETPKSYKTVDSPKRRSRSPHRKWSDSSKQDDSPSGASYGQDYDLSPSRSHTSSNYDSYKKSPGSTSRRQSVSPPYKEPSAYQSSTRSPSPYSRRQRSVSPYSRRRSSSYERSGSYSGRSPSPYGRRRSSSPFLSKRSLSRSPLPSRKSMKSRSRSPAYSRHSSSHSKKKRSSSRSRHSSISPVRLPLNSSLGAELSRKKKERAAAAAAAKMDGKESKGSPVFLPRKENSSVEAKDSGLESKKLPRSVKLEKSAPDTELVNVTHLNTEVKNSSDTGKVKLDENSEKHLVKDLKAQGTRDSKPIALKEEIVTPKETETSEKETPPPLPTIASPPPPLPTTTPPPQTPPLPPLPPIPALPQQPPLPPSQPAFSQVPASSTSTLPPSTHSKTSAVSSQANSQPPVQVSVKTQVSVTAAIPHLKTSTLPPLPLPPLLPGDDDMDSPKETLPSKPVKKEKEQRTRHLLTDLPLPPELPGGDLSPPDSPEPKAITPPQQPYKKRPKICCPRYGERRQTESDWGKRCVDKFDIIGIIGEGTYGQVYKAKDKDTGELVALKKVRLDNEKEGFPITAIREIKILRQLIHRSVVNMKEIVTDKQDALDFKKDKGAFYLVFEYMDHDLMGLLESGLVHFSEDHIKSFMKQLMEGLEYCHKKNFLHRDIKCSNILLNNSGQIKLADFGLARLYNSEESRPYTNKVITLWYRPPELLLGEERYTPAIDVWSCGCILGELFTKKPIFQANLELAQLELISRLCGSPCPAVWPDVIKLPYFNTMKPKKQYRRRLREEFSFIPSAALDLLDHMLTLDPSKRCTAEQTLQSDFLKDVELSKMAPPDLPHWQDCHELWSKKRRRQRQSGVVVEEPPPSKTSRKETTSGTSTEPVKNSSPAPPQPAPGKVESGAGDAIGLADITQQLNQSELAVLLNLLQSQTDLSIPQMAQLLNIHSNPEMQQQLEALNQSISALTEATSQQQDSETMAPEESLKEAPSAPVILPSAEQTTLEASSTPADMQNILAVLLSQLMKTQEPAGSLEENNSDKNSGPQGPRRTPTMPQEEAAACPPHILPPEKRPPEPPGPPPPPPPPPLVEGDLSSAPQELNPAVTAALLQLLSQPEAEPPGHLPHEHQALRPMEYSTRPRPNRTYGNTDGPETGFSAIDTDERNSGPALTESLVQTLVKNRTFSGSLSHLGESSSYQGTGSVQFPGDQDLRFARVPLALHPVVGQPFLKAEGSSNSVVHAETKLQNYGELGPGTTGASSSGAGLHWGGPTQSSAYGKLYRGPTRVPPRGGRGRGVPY
Sequence of Cdk12 (O75909 whole entry partner): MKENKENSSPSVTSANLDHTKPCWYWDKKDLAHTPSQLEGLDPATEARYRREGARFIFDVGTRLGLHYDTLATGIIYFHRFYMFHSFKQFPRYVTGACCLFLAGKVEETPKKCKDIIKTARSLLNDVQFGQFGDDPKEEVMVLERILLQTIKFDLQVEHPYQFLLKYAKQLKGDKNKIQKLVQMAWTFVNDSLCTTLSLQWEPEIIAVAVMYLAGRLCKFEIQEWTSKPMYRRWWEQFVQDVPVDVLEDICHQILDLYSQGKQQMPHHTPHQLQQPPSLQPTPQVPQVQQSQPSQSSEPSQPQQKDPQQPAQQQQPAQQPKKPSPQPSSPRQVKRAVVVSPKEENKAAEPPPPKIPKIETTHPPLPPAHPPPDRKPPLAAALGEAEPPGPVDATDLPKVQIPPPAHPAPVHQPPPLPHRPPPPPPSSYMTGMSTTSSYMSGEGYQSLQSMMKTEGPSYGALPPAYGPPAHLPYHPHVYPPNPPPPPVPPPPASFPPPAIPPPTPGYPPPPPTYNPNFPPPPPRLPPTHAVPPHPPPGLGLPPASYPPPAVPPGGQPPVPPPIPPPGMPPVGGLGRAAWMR
Experiment [5] concerns eIF4G-bound mRNAs in U2OS cells. The experiment in a line: RIP-seq of eIF4G-bound mRNAs. Type of experiment: cell-based, human. To be noted: transcriptional targets excluded. The method, then: All steps were conducted at 4° C. in RNase-free conditions. U20S cells (5×10^6) were transfected with the indicated siRNAs and washed twice with cold PBS. […] Reverse transcription and qRT-PCR for quantitative RNA analysis was carried out as described above.
All steps were conducted at 4° C. in RNase-free conditions. […] Reverse transcription and qRT-PCR for quantitative RNA analysis was carried out as described above.
High throughput sequencing was performed. For detail of analysis, sequenced reads were quality-tested using FASTQC and aligned to the hg19 human genome using the STAR aligner version 2.4.0 k (Dobin et al., Bioinformatics. 2013; 29(1):15-21. doi: 10.1093/bioinformatics/bts635. pmid:23104886). Mapping was carried out using default parameters (up to 10 mismatches per read, and up to 9 multi-mapping locations per read). […] Raw gene expression was quantified across all gene exons (RNA-Seq) or across gene bodies (RIP-Seq), using the top-expressed isoform as proxy for gene expression, and differential gene expression was carried out using the edgeR package version 3.6.8 (Robinson et al. (2010) Bioinformatics, 26, pp. 1) using duplicates to compute within-group dispersion. […]

For `CC(C)(C)c1cc(O)ccc1O` [tBHQ, tert-butylhydroquinone], in the experiment with U2OS cells [1], the “RNAPII CTD-Ser2 and 4E-BP1 S65, T70 phosphorylation” value is recorded as “global increase”; the “mTORC1-dependent 4E-BP1 T37/46 phosphorylation levels” value was “only modestly increased”. Further, in experiment [2], the “association of CRIF1 with the CDK12:CCNK complex” value is recorded as “greatly reduced”.
In the case of `CC[C@H](C)[C@@H]1NC(=O)CNC(=O)[C@@H]2Cc3c([nH]c4cc(O)ccc34)[S+]([O-])C[C@@H](NC(=O)CNC1=O)C(=O)N[C@@H](CC(N)=O)C(=O)N1C[C@H](O)C[C@H]1C(=O)N[C@@H]([C@@H](C)[C@@H](O)CO)C(=O)N2` (stereo in doubt) [α-amanitin], in experiment [3], the “association of eIF4E and 4E-BP1 at the CHK1 promoter” value is “largely abolished”; the “occupancy of RNAPII or CDK12 at the CHK1 promoter” value was “without affecting”.
Regarding `O=C(c1cc(Cc2n[nH]c(=O)c3ccccc23)ccc1F)N1CCN(C(=O)C2CC2)CC1` [Olaparib, olaparib], the “cell survival with CDK12 depletion” value with U2OS cells [4] is recorded as “sensitizes”.
On to `CN1CC[C@H](c2c(O)cc(O)c3c(=O)cc(-c4ccccc4Cl)oc23)[C@H](O)C1` [flavopiridol], for which, at Cdk12, the “inhibition of Cdk12 kinase activity” value is on record as “modestly inhibit”.
As to `CO[C@H]1C[C@@H]2CC[C@@H](C)[C@@](O)(O2)C(=O)C(=O)N2CCCC[C@H]2C(=O)O[C@H]([C@H](C)C[C@@H]2CC[C@@H](O)[C@H](OC)C2)CC(=O)[C@H](C)/C=C(\C)[C@@H](O)[C@@H](OC)C(=O)[C@H](C)C[C@H](C)/C=C/C=C/C=C/1C` [rapamycin], the “number of rapamycin-sensitive mRNAs that require mTORC1 to efficiently bind eIF4G” value in experiment [5] is 2,961.
In the case of `CN(C)C/C=C/C(=O)Nc1ccc(C(=O)Nc2cccc(Nc3ncc(Cl)c(-c4c[nH]c5ccccc45)n3)c2)cc1` [THZ1], at Cdk12, the “inhibition of Cdk12 kinase activity” value was “modestly inhibit”.
